Data set [1] concerns HIV-1 replication in H9 lymphocyte cells. The note with it: Fujioka et al. 1994, cited from earlier work.
The subject of the next data set is HIV-1 (IIIB isolate). The class given is cell-based. The note with it: average of at least two experiments; cell line not stated; read-out: Anti-HIV Activity EC50. The method, then: (§1) The biological evaluation of HIV-1 inhibition was carried out as follows according to established protocols (Montefiori et al., Clin Microbiol. 26:231-235 (1988)). The human T-cell line, MT-2, was maintained in continuous culture with complete medium (RPMI 1640 with 10% fetal calf serum supplemented with L-glutamine at 5% CO2 and 37° C.). Test samples were first dissolved in dimethyl sulfoxide at a concentration of 10 mg/ml to generate master stocks with dilutions made into tissue culture media to generate working stocks. The following drug concentrations were routinely used for screening: 100, 20, 4 and 0.8 μg/ml. For agents found to be active, additional dilutions were prepared for subsequent testing so that an accurate EC50 value (defined below) could be determined. Test samples were prepared and to each sample well was added 90 μl of media containing MT-2 cells at 3×10^5 cells/ml and 45 μl of virus inoculum (HIV-1 IIIIB isolate) at a concentration necessary to result in 80% killing of the cell targets at 5 days post-infection (PI). Control wells containing virus and cells only (no drug) and cells only (no virus or drug) were also prepared. A second set of samples were prepared identical to the first and were added to cells under identical conditions without virus (mock infection) for toxicity determinations (IC50 defined below). In addition, AZT was also assayed during each experiment as a positive drug control. On day 5 PI, virus-induced cell killing was determined by measuring cell viability using the XTT method. Compound toxicity was determined by XTT using the mock-infected samples. If a test sample had suppressive capability and was not toxic, its effects were reported in the following terms: IC50, the concentration of test sample which was toxic to 50% of the mock-infected MT-2 cells; EC50, the concentration of the test sample that was able to suppress HIV replication by 50%; and the Therapeutic index (TI) the ratio of the IC50 to EC50.
(§2) Compounds of the present invention were assayed for anti-HIV activity according to the following assay procedures. The T cell line, H9, and the promonocytic cell line, U937, were maintained separately in continuous culture with complete medium (RPMI 1640 with 10% fetal calf serum) at 5% CO2 and 37° C. The cell lines were used in experiments only when in the logarithmic phase of growth, whereas uninfected peripheral blood mononuclear cells (PBMCs) were first stimulated with PHA (1 μg/mL) for three days. All cell targets were incubated with HIV-1 (IIIB isolate, 1×10^6 TCID50/mL) for one hour at 37° C. and 5% CO2. The cell lines and PBMCs were washed thoroughly to remove unadsorbed virions and resuspended at 4×10^5 cells/mL in complete medium or complete medium with 10% v/v interleukin 2 (IL-2), respectively. 100 μL aliquots were placed into wells of 96-well tissue culture plates containing an equal volume of test compounds (diluted in the appropriate culture medium). The toxicity of each compound was assessed by determining the number of compound-exposed uninfected cells that remained after five days at 37° C. and 5% CO2. A p24 antigen ELISA assay was used to determine the level of virus released in the medium of the HIV-infected cultures. […] The cutoff for the p24 ELISA assay was 12.5 pg/mL. p24 in the culture medium was quantitated against a standard curve containing known amounts of p24. The effective (EC50) and inhibitory (IC50) concentrations for anti-HIV activity and cytotoxicity, respectively, were determined.

The subject of a further data set is uninfected cells. The data set can be described thus: Cytotoxicity on compound-exposed uninfected cells. On the procedure:
as §1, §2

Where [2] appears, read: read-out: Cytotoxicity IC50, average of at least two experiments, uninfected cells.
[3] abbreviates: H9 lymphocyte cells, read-out: EC50, inhibitory activity against HIV-1 replication.

Read-outs that look alike come from different tables or passages of the source.

By EC50 is commonly meant the concentration needed to bring the measured effect to its halfway point. Regarding `CC(C)[C@@H]1CC[C@]2(C(=O)O)CC[C@]3(C)C(CCC4[C@@]5(C)CC[C@H](O)C(C)(C)C5CC[C@]43C)C12` (stereo partly shown) [dihydrobetulinic acid], the EC50 in data set [1] (unit inferred, read-out: EC50, anti-HIV activity) was 900 nM.
By IC50 is commonly meant the midpoint of a concentration-inhibition curve. For the compound `C=C(C)[C@@H]1CC[C@]2(CO)CC[C@]3(C)[C@H](CC[C@@H]4[C@@]5(C)CC[C@H](OC(=O)CCCC(=O)O)C(C)(C)[C@@H]5CC[C@]43C)[C@@H]12` [Compound 10, 3-O-glutaryl betulin], the EC50 in the data set on HIV-1 (IIIB isolate) is 66.2 nM. Moreover, the IC50 in the data set on uninfected cells (setting [2]) is 44400 nM.
For the compound `C=C(C)[C@@H]1CC[C@]2(CO)CC[C@]3(C)[C@H](CC[C@@H]4[C@@]5(C)CC[C@H](OC(=O)CC(C)(C)C(=O)O)C(C)(C)[C@@H]5CC[C@]43C)[C@@H]12` [Compound 6], in the data set on HIV-1 (IIIB isolate), the EC50 is 5.6 nM. In the data set with uninfected cells, this compound gave an IC50 of 33500 nM.
The corresponding values for `C=C(C)[C@@H]1CC[C@]2(CO)CC[C@]3(C)[C@H](CC[C@@H]4[C@@]5(C)CC[C@H](OC(=O)COCC(=O)O)C(C)(C)[C@@H]5CC[C@]43C)[C@@H]12` [Compound 12] are 24.6 nM and over 44800 nM.
In the case of `C=C(C)[C@@H]1CC[C@]2(C(=O)O)CC[C@]3(C)[C@H](CC[C@@H]4[C@@]5(C)CC[C@H](O)C(C)(C)[C@@H]5CC[C@]43C)[C@@H]12` [Betulinic acid, betulinic acid], the EC50 in data set [1] (setting [3]) was 1400 nM.
As to `C=C(C)[C@@H]1CC[C@]2(CO)CC[C@]3(C)[C@H](CC[C@@H]4[C@@]5(C)CC[C@H](OC(=O)CCCC(=O)OCC)C(C)(C)[C@@H]5CC[C@]43C)[C@@H]12` [Compound 18, 3-O-glutaryl betulin ethyl ester], the half-maximal effective concentration (EC50) in the data set on HIV-1 (IIIB isolate) came out at 16.9 nM. Besides, the IC50 in the data set on uninfected cells (setting [2]) worked out at 36400 nM.
Regarding `CC(=O)[C@@H]1CC[C@]2(C(=O)O)CC[C@]3(C)[C@H](CC[C@@H]4[C@@]5(C)CC[C@H](O)C(C)(C)[C@@H]5CC[C@]43C)[C@@H]12` [platanic acid], in data set [1] (setting [3]), the EC50 is 6500 nM.
Turning to `C=C(C)[C@@H]1CC[C@]2(CO)CC[C@]3(C)[C@H](CC[C@@H]4[C@@]5(C)CC[C@H](OC(=O)CC(C)(C)CC(=O)O)C(C)(C)[C@@H]5CC[C@]43C)[C@@H]12` [Compound 8], the EC50 in the data set on HIV-1 (IIIB isolate) is 4.4 nM. In the data set on uninfected cells, this compound displayed an IC50 of 28900 nM.

(Values after patent US7365221B2, “Monoacylated betulin and dihydrobetulin derivatives, preparation thereof and use thereof” (priority 2002, dated 2008).)
